The values below come from patent publication US11274132B2, “Combined preparations of PKM2 modulators and HMGB1” (Ruprecht-Karls-Universität Heidelberg, priority 2015, dated 2022).

For one data set, the system named is ATP synthase. Put plainly: Respiratory chain complex activities in mitochondrial fractions. It counts as cell-based, human. The following applies: colorectal cancer cell lines; HMGB1 80 nM, 24 h. As for the experimental part:
(§1) Enzymatic activities of respiratory chain complexes, glycolytic proteins and malic enzyme were determined in subcellular fractions as previously described (Kaminski, M. M. et al. T cell activation is driven by an ADP-dependent glucokinase linking enhanced glycolysis with mitochondrial reactive oxygen species generation. Cell reports 2, 1300-1315 (2012).Bruncko, M. et al. Naphthamidine urokinase plasminogen activator inhibitors with improved pharmacokinetic properties. Bioorganic & medicinal chemistry letters 15, 93-98, (2005)) using a computer-tuneable spectrophotometer (Spectramax Plus Microplate Reader, Molecular Devices; Sunny Vale, Calif., USA) operating in the dual wavelength mode; samples were analyzed in temperature-controlled 96-well plates in a final volume of 300 μl. Activity of ME1 was recorded in presence of increasing amounts of malic acid (0.02, 0.05, 0.1, 0.2, 0.5, 1, 2.5 mM). Vmax and Km were calculated using a Hanes-Woolf plot. In the presence of high substrate levels the Km for malic acid was similar in all three tested cell lines (SW480: 0.32 mM, HCT116: 0.30 mM, HT29: 0.31 mM). Vmax (mU/mg protein) values were 3.38 (SW480, 0.5-5.0 mM malic acid), 5.77 (HCT116, 0.5-5.0 mM malic acid) and 3.68 (HT29, 0.5-5.0 mM malic acid) and 1.68 (SW480, 0.02-0.2 mM malic acid), 3.24 (HCT116, 0.02-0.2 mM malic acid) and 1.89 (HT29, 0.02-0.2 mM malic acid). Two isoforms of ME1, mitochondrial (NAD(P)+dependent) ME3 and mitochondrial (NAD+dependent) ME2, had very low or no detectable activities (data not shown).
(§2) Cells were lysed in lysis buffer P (20 mM Tris-HCl (pH 7.4), 137 mM NaCl, 10% (v/v) glycerine, 1% Triton X-100, 2 mM EDTA, 100 mM phenylmethylsulfonyl fluoride and protease inhibitors (Complete mini from Roche). Lysates were centrifuged at 14,000×g (10 min) at 4° C. Total protein was measured by the Bradford (Bio-Rad) method. Soluble protein was resolved by SDS-PAGE, blotted onto nitrocellulose and incubated with one of the following antibodies: mouse monoclonal anti-β-actin (1:3,000, Sigma-Aldrich), rabbit anti PK M2 (1:1,000, Cell Signaling), rabbit anti-malic enzyme 1 (1:1,000, abcam). Appropriate secondary antibodies (1:3,000, horse-radish peroxidase-conjugated) were from Bio-Rad. Visualization was done by enhanced chemiluminescence technique (GE-Healthcare). Mitochondrial fractions were extracted using the ApoAlert Cell Fractionation Kit (Clontech) as described earlier (Gdynia, G. et al. BLOC1S2 interacts with the HIPPI protein and sensitizes NCH89 glioblastoma cells to apoptosis. Apoptosis: an international journal on programmed cell death 13, 437-447, (2008)).

In another data set the test system is complex I to III. The data set is described as above. To be noted: colorectal cancer cell lines; HMGB1 80 nM, 24 h. In kind it is cell-based, human. As for the experimental part:
as §1, §2

The subject of a further data set is complex II and III. Described as above. In kind it is cell-based, human. To be noted: HMGB1 80 nM, 24 h. The procedure: as §1, §2
Data set [1] has as its system cytochrome c oxidase (COX). The description is as above. In kind it is cell-based, human. The procedure:
as §1, §2

The test system of another data set is ATP. Put plainly: Cellular ATP after HMGB1 treatment. In kind it is cell-based, human.
A further data set deals with ATP production. Put plainly: ATP production calculated from lactate production rates and oxygen consumption. To be noted: SW480 cells; HMGB1 80 nM, 24 h. It counts as cell-based, human. The procedure: (§3) Lactate derived from the metabolism of ^13C6-D-glucose or ^13C5-glutamine was determined by comparing the CH3 group intensities of labeled and non-labeled lactate in NMR. Mitochondrial respiration was measured using an Oroboros 1 oxygraph system. Glycolysis was measured by monitoring the conversion of 5-^3H-Glucose to ^3H2O. Incorporation of ^14C into RNA ribose from U-^14C-labelled glucose was taken as glucose utilization in the pentose phosphate shunt. Enzymatic activities were determined in subcellular fractions as previously described^24.
For analysis of ^13C-lactate efflux 1 ml of the cellular supernatant was centrifuged (8,000×g, 10 min, 4° C.) to spin down cellular debris. To 500 μl of the supernatant 10% of D2O were added respectively and transferred to 5 mm NMR sample tubes. The samples were measured with a Bruker AvanceIII 600 NMR spectrometer, equipped with a cryogenically cooled detection probe (QNP-CryoProbe™).

Another data set concerns glucose-6-phosphate. Put plainly: Glucose-6-phosphate assay kit. It counts as cell-based, human. The following applies: HMGB1-treated cells. The procedure:
Glucose-6-phosphate levels in cells were measured using the Glucose-6-phosphate assay kit (Sigma) according to the manufacturer's protocol.

In a further data set the target is T1, Dimeric PK M2 (Homo sapiens, UniProt P14618).
T1 construct: Activities of glycolytic enzymes measured in cytosolic fractions after treatment with HMGB1; endogenous in cells; host or cells: SW480, HCT116, HT29 cytosolic fractions; homogenates of human colon cancer tissue slices
T1 sequence (P14618 2-531 limits assumed): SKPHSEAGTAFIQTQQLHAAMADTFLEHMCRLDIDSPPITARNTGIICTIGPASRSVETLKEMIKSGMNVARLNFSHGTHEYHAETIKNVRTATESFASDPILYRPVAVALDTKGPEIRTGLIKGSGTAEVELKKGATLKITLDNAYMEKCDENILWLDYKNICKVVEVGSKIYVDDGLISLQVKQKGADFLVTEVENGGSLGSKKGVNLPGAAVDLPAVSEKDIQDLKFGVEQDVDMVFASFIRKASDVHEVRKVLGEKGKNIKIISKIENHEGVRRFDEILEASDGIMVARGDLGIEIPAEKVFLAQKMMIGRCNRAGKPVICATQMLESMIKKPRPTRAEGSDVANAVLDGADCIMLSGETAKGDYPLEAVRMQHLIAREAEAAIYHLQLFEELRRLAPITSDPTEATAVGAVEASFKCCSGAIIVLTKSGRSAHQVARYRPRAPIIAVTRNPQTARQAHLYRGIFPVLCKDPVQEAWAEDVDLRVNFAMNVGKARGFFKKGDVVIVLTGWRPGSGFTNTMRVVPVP
Briefly: Pyruvate kinase enzymatic assay (high PEP). In kind it is cell-based. The following applies: colorectal cancer cells. As for the experimental part:
as §1, with “Two isoforms of ME1, mitochondrial (NAD(P)+dependent) ME3 and mitochondrial (NAD+dependent) ME2, had very low or no detectable activities (data not shown).” left out

The subject of data set [2] is mitochondrial oxygen consumption. Put plainly: Mitochondrial (cyanide sensitive) respiration, Oroboros oxygraph. In kind it is cell-based, human. The procedure: as §3
In data set [3] the test system is glucose flux (glycolysis). Put plainly: Glycolysis: conversion of 5-3H-Glucose to 3H2O. It counts as cell-based, human. To be noted: HMGB1 80 nM, 24 h. As for the experimental part: as §3
In data set [4] the target is T2, PKM2 (Homo sapiens, UniProt P14618). Briefly: Ultrafiltration of the PK M2-HMGB1 complex. In kind it is binding. To be noted: 2 μM human PK M2 and 2 μM human HMGB1. As for the experimental part:
Ultrafiltration of the PK M2-HMGB1 complex: equimolar amounts of HMGB1 and PKM2 were mixed in a final volume of 300 μl and filtrated (14000 g, 4° C.) to a final volume of 15 μl in an Amicon Ultra 0.5 ml 30k device (Merck-Millipore, Darmstadt, Germany). The retentate was adjusted to the original volume after centrifugation. Then filtrate and retentate were analyzed by Western Blot. For controls HMGB1 and PKM2 were also analyzed alone. Pure HMGB1 (2 μM) suited as a negative control.

In data set [5] the target is T2, PKM2. Put plainly: Immunoprecipitation with 125I-labeled HMGB1 (PKM2 pull-down). Set-up: endogenous in cells. It counts as binding. The following applies: 125I-labeled HMGB1. As for the experimental part:
FIG. 6: Co-administration of HMGB1 and an activator (A left and right) or an inhibitor (B) of PMK2 has a synergistic cytotoxic effect, as determined in the crystal violet cytotoxicity assay (assays were performed in duplicate, * indicates p<0.05). (C) Immunoprecipitation with I125-labeled HMGB1 (PKM2 pull-down). HMGB1, like phosphotyrosine-peptides, binds close to the allosteric center of PKM2, leading to a competition in binding.

T2 sequence (P14618 whole entry): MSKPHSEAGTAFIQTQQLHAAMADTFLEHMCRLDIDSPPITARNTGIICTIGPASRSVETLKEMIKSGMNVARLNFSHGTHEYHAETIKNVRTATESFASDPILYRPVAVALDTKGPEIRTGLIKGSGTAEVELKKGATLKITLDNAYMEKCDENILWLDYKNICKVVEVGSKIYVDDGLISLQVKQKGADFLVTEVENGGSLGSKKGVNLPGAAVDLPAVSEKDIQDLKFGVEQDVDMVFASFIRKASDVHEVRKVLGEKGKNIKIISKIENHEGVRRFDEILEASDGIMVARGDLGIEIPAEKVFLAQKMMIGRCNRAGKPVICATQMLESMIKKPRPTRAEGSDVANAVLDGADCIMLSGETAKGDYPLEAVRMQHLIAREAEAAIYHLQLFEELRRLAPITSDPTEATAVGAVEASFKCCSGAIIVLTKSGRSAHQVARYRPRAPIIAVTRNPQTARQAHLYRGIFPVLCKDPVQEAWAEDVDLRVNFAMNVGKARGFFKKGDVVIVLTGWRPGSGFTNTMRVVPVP

With “HMGB1: recombinant human HMGB1 protein (Sigma-Aldrich); High Mobility Group Box 1 polypeptide, human, SEQ ID NO: 4”, the ATP synthase activity entry with ATP synthase is reported as “not diminished”. Besides, the “electron flow from complex I to III” value with complex I to III was “unchanged”. Also, the “coupled complex II and III activity” value with complex II and III (HCT116) is on record as “maintained or even upregulated”; in the data set with complex II and III (HT29), “maintained or even upregulated”; in the data set on complex II and III (SW480), “decreased”. In addition, the COX activity result in data set [1] (colorectal cancer cell lines, HMGB1 80 nM, 24 h) is on record as “significantly lower activity levels”; in data set [1] (primary tumor tissue slices, HMGB1 160 nM, 72 h), “potent inhibition”. For the same substance, the ATP result in the data set on ATP (HCT116 cells) and with ATP (SW480 cells) was “substantial decrease” each time. Also, in the data set with ATP production, the “decline of ATP production” value is given as roughly 50%. For the same substance, in the data set with glucose-6-phosphate, the glucose-6-phosphate level entry is “strong increase”. Moreover, in the data set with Dimeric PK M2, the “Dimeric PK M2 activity” value is reported as “unchanged”. Moreover, the “inhibition of mitochondrial oxygen consumption” value in data set [2] (HCT116 cells, HMGB1 80 nM, 24 h) is listed as “pronounced”; in data set [2] (SW480 cells, HMGB1 80 nM, 24 h), “pronounced”. Besides, the mitochondrial respiration result in [2] (HT29 cells, HMGB1 80 nM, 24 h) is given as “only slightly reduced”. The mitochondrial oxygen consumption entry in data set [2] (colorectal cancer tissue slices, HMGB1 160 nM, 72 h) is on record as “strongly decreased”. For the same substance, the “glucose flux (5-3H-glucose turn-over)” value in data set [3] is listed as “reduced at the enolase reaction step”. In addition, the “physical interaction with PK M2 in vitro” value with PKM2 [4] is recorded as “physically interacted”. For the same substance, the “binding to PKM2 in vivo (immunoprecipitating PKM2)” value with PKM2 [5] was “specific binding”.
